Broadly, the AC50 is the concentration at which the activity in the assay is half-maximal. The term EC50 denotes the concentration giving half of the maximal effect.

The source made the active and inactive calls. Where only a bound is given, the exact number is not on record here.

This note sets out measurements from ChEMBL document CHEMBL1201862, “PubChem BioAssay data set” (2004).

Among the targets are Cytochrome P450 2D6 (Homo sapiens, UniProt P10635); Cytochrome P450 2C9 (Homo sapiens, UniProt P11712); Cytochrome P450 3A4 (Homo sapiens, UniProt P08684).
Another assay concerns the target T1, Cytochrome P450 1A2 (Homo sapiens, UniProt P05177).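 Further: PubChem cytochrome P450 panel assay, CYP1A2 panel member.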
T1 sequence (P05177 whole entry): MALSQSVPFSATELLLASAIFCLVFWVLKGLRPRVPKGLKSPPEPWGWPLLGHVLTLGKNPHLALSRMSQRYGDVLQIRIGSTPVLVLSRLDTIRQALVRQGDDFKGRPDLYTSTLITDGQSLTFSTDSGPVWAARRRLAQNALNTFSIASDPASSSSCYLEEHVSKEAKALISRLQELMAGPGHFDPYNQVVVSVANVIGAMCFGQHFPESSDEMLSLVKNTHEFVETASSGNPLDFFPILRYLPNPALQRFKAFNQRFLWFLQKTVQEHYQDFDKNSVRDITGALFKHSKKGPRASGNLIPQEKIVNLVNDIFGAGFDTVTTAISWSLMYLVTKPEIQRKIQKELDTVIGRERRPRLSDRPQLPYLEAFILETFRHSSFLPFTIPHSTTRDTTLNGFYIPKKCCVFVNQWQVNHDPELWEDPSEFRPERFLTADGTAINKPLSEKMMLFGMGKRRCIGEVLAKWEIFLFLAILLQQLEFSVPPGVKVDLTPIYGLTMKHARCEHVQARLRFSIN

Assay [1] in a line: luciferase reporter signal suppression in cells – H4 neuroglioma cells, luminescence, dose response (AID 1990). The assay is classed as functional, cell-based. (Reporter assays use an easily measured gene product as a stand-in for the process of interest.)
Assay [2] can be described thus: Luminescence Cell-Based Dose Response HTS to Identify Inhibitors of 5'UTR Stem-Loop Driven Prion Protein mRNA Translation in H4 Neuroglioblastoma Cells. [Related pubchem assays: 1827 (Project Summary), 1813 (Primary HTS)]. The assay is classed as functional.
Assay [3] can be described thus: alpha-synuclein stem-loop luciferase translation blockers – H4 neuroglioma cells, luminescence, confirmation (AID 1988). The class given is functional, cell-based.
Assay [4] can be described thus: intracellular Trypanosoma cruzi inhibitors in host cells – cell-based, plate reader, cherry-pick samples, set 3, dose response (AID 651818).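 Further: compounds incubated with infected cells for about four days.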 The assay is classed as functional.
In assay [5] the target is T2, Polyadenylate-binding protein 1 (Homo sapiens, UniProt P11940). Put plainly: MLLE binding blockers, Cy5 peptide tracer – biochemical, fluorescence polarization, Cy5-PAM2 peptide, secondary, miRNA deadenylation inhibitor project, dose response (AID 602260). The assay is classed as functional. The settings on record: read-out: IC50_Mean. A general note: Fluorescence polarisation rises when a labelled molecule tumbles more slowly, as on binding a larger partner.
T2 sequence (P11940 whole entry): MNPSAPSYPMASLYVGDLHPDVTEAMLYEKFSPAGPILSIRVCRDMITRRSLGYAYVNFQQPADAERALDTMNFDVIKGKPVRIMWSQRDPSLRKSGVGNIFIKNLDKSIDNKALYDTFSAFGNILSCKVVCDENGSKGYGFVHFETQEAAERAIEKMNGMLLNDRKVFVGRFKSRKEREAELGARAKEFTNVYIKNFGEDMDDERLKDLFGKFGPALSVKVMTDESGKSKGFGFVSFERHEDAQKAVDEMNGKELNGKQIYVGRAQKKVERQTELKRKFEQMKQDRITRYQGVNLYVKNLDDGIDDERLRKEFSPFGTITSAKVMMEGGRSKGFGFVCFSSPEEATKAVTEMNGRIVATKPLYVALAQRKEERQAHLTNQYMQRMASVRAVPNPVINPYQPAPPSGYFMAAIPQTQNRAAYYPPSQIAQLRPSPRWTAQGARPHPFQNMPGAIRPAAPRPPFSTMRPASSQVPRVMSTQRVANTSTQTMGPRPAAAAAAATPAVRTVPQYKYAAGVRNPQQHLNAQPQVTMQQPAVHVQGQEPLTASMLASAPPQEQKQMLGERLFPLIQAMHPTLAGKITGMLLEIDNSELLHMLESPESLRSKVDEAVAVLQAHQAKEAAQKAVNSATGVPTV

In assay [6] the target is T2, Polyadenylate-binding protein 1. Put plainly: MLLE domain peptide-binding blockers, IC50 – biochemical, fluorescence polarization, FITC-PAM2 peptide, dose response (AID 602259). The assay is classed as functional. The settings on record: read-out: IC50_Mean.
The next assay has as its system H4. Put plainly: Luminescence Cell-Based Dose Response HTS to Identify Activators of 5'UTR Stem-Loop Driven Prion Protein mRNA Translation in H4 Neuroglioblastoma Cells. [Related pubchem assays: 1829 (Project Summary), 1814 (Primary HTS)]. The assay is classed as functional. The settings on record: Homo sapiens.
Another assay addresses Cytochrome P450 2C19 (Homo sapiens, UniProt P33261). Put plainly: Cytochrome panel assay with activity outcomes. Panel member name: p450-cyp2c19 Compounds with AC50 equal or less than 10 uM are considered active. The assay is classed as functional. The settings on record: read-out: AC50.
For assay [7], the target named is T3, Replicative DNA helicase DnaB (Mycobacterium tuberculosis, UniProt P9WMR3).
T3 sequence (P9WMR3 whole entry): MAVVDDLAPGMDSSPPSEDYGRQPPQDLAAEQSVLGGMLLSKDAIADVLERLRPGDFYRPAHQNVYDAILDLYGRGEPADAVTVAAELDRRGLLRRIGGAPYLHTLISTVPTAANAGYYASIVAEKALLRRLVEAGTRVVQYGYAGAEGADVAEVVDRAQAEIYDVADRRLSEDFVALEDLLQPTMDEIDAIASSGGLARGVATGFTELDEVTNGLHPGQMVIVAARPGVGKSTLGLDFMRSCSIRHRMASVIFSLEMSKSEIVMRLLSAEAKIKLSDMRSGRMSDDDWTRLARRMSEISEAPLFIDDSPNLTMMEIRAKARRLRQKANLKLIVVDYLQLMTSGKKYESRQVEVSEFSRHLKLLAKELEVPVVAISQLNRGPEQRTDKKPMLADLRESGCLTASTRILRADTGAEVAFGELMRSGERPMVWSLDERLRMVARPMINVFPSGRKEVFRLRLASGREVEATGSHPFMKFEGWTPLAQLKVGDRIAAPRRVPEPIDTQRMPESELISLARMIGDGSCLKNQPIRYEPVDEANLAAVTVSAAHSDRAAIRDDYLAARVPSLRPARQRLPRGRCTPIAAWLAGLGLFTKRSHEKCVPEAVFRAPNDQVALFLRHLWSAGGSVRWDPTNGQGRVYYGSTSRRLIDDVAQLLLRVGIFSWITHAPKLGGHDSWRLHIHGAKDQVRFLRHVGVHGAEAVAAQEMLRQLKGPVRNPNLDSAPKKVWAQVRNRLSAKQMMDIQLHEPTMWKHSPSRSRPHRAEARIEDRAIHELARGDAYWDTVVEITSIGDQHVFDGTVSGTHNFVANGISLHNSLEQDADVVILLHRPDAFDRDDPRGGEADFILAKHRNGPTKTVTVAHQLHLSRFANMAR
Put plainly: DnaB intein splicing inhibitors, dose response, biochemical, cell-free fluorescence (AID 449749). The class given is functional.

The next assay has as its target T4, Protein RecA (Mycobacterium tuberculosis, UniProt P9WHJ3).
T4 sequence (P9WHJ3 whole entry): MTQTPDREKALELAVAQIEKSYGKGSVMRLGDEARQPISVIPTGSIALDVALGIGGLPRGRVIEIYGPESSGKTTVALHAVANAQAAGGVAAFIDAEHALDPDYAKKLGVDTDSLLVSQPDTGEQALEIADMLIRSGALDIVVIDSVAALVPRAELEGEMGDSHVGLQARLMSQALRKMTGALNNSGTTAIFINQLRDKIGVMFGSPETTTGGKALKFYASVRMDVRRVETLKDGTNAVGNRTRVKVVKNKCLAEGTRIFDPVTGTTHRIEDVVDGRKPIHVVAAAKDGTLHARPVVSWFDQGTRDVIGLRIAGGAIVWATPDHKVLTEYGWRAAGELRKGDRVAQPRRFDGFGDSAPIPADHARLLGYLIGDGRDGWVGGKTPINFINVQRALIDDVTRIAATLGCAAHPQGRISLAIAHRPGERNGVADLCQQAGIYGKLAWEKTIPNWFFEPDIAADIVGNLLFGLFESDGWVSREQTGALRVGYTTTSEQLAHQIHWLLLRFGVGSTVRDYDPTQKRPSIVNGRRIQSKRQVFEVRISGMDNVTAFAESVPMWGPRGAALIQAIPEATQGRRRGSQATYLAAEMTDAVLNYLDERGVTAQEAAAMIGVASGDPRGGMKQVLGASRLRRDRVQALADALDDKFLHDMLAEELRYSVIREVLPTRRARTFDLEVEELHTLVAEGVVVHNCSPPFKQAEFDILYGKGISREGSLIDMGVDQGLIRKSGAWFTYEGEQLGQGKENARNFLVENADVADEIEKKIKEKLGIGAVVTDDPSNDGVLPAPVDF
In words: Fluorescence Cell-Free Homogeneous Dose Retest to Identify Inhibitors of RecA-Intein Splicing Activity. [Related pubchem assays (depositor defined):AID2097, AID2223, AID489010, AID492950]. The assay is classed as functional.

Sequence of Cytochrome P450 2D6 (P10635 whole entry): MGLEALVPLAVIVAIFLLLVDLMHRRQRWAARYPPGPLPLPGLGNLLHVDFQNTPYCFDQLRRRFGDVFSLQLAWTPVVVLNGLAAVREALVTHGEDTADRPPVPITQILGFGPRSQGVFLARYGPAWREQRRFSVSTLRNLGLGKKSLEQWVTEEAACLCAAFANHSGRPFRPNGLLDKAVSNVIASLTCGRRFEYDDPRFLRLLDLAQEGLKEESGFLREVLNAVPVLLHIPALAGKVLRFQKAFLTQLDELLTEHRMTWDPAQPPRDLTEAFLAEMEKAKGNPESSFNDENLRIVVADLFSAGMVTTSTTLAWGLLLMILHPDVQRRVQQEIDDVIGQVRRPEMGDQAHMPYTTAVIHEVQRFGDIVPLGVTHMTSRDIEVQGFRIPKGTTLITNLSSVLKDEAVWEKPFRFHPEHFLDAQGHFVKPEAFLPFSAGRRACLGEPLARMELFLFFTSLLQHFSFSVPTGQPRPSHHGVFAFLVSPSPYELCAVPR
Sequence of Cytochrome P450 2C9 (P11712 whole entry): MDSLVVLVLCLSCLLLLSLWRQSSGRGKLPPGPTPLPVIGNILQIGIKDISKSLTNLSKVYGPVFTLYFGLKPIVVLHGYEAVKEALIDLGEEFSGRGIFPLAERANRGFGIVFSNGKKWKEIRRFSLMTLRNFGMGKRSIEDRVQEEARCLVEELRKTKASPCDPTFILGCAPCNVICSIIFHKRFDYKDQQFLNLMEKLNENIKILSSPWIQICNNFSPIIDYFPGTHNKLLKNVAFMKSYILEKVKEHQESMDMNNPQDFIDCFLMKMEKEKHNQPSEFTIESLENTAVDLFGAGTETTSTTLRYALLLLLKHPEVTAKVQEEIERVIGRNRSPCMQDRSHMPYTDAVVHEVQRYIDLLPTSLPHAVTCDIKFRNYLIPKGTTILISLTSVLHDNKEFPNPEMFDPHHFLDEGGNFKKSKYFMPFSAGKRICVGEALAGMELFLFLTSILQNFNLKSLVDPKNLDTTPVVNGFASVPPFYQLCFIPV
Sequence of Cytochrome P450 3A4 (P08684 whole entry): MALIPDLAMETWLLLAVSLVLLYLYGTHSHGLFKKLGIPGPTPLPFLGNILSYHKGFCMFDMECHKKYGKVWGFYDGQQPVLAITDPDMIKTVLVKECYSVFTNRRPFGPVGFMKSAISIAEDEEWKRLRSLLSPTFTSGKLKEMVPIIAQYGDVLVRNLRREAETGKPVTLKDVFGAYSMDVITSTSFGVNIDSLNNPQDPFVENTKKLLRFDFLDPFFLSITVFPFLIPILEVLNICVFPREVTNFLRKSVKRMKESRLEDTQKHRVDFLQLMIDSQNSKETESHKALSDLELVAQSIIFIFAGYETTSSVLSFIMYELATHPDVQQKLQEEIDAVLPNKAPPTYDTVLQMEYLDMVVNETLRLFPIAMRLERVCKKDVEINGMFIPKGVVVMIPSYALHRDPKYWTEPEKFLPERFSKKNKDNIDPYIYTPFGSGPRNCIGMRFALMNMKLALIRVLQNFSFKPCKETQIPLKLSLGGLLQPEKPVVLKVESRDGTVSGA
Sequence of Cytochrome P450 2C19 (P33261 whole entry): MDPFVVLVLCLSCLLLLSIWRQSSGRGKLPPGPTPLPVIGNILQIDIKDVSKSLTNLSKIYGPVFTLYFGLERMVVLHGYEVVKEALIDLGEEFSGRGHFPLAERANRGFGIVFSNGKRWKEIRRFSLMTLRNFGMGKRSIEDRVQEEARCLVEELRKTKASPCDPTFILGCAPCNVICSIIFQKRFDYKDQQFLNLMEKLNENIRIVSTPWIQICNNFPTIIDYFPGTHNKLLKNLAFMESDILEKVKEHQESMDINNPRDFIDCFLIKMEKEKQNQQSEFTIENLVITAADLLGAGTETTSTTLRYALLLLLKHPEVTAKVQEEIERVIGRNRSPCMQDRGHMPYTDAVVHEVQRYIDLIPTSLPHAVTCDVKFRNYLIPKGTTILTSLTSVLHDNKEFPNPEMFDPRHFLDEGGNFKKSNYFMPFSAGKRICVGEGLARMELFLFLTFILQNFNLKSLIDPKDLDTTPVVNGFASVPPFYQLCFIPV

Regarding `O=c1c(-c2cc(F)cc(F)c2)nc2cnc(N3CCNCC3)nc2n1CCc1ccccc1`, the AC50 at Cytochrome P450 2D6 and on Cytochrome P450 1A2 was 20 µM (inconclusive) throughout.
Take `O=C(Cc1ccc(-n2c(=O)[nH]c3ccccc3c2=O)cc1)N1CCN(c2cccc(Cl)c2)CC1`: the EC50 in [1] is 23 µM (active); in assay [2], 25.3 µM (active); in [3] it was > 120 µM (not active). For the same compound, the AC50 at Cytochrome P450 2D6 is 14.1 µM (inconclusive); on Cytochrome P450 1A2, 17.8 µM (inconclusive).
Consider `C[C@@H]1CN([C@@H](C)CO)C(=O)Cc2cc(NC(=O)Cc3ccccc3)ccc2O[C@@H]1CN(C)Cc1ccc(C(=O)Nc2ccccc2N)cc1`, for which the AC50 in assay [4] was 3.09 µM (active).
For the compound `Cc1cc(NS(=O)(=O)c2ccc(NC(=S)NC(=O)c3ccc(Br)cc3)cc2)no1`, the IC50 in [5] and in assay [6] was > 66 µM (inactive) throughout.
Take `Cc1ccc(S(=O)(=O)Nc2ccc3c(c2)CC(=O)N([C@H](C)CO)C[C@@H](C)[C@@H](CN(C)Cc2ccc(C(=O)Nc4ccccc4N)cc2)O3)cc1`: in assay [4], the AC50 was 3.25 µM (active).
Turning to `C[C@@H]1CN([C@@H](C)CO)C(=O)c2cccc(NC(=O)Nc3ccccc3)c2O[C@H]1CN(C)Cc1ccc(C(=O)Nc2ccccc2N)cc1`, the AC50 in [4] was 0.869 µM (active).
On to `C[C@H](CO)N1C[C@H](C)[C@@H](CN(C)S(=O)(=O)c2ccccc2)Oc2c(NC(=O)Nc3ccccc3)cccc2C1=O`, for which, in assay [4], the AC50 is 20 µM (inactive).
Same read-out and setting: then `C[C@H]1CN([C@@H](C)CO)C(=O)Cc2cc(N(C)C)ccc2O[C@@H]1CN(C)Cc1ccc(-c2ccccc2)cc1`, with 2.21 µM (active); and `Cc1ccc(S(=O)(=O)N(C)C[C@H]2Oc3c(NC(=O)CCCCCC(=O)Nc4ccccc4N)cccc3C(=O)N([C@H](C)CO)C[C@@H]2C)cc1`, with 1.42 µM (active).
`CCOC(=O)CC1=C(C(=O)OCC)C(c2ccc(C)o2)C(C#N)=C(N)O1` (stereo not drawn): the figures for the IC50 in assay [5] and in [6] were > 66 µM (inactive) and 32 µM (inactive), respectively.
Take `Cc1ccc(S(=O)(=O)Nc2ccc3c(c2)CC(=O)N([C@H](C)CO)C[C@@H](C)[C@@H](CN(C)Cc2ccc(Oc4ccccc4)cc2)O3)cc1`: the AC50 in assay [4] was 2.03 µM (active).
Same read-out and setting: then `C[C@@H]1CN([C@@H](C)CO)C(=O)c2cccc(NC(=O)CCCCCC(=O)Nc3ccccc3N)c2O[C@H]1CN(C)Cc1ccc(Cl)c(Cl)c1`, with 3.06 µM (active).
Take `Cn1c(-c2ccc(F)cc2)cnc1SCC(=O)Nc1ccccc1N1CCOCC1`: the EC50 in the assay with H4 was 0.244 µM (active).
As for `C[C@@H]1CN([C@@H](C)CO)C(=O)c2cccc(N(C)C)c2O[C@@H]1CN(C)Cc1ccc(Oc2ccccc2)cc1`, in assay [4], the AC50 was 6.65 µM (active).
Turning to `CCC/C=C(\CCC)C(NP(=O)(c1ccccc1)c1ccccc1)c1ccccc1` (stereo not drawn), the AC50 was 20 µM (inconclusive) on Cytochrome P450 2C19, 39.8 µM (inconclusive) at Cytochrome P450 2D6, 15.8 µM (inconclusive) at Cytochrome P450 1A2 and 25.1 µM (inconclusive) on Cytochrome P450 2C9.
Turning to `CCCc1n[nH]c2c1C(c1ccncc1)C(C#N)=C(N)O2` (stereo not drawn), the AC50 was 45.8 µM (active) in assay [7], 25.1 µM (inconclusive) at Cytochrome P450 2D6, 25.1 µM (inconclusive) on Cytochrome P450 1A2 and 39.8 µM (inconclusive) at Cytochrome P450 3A4. The EC50 on Protein RecA is 17.6 µM (active).
On to `CC(O)(CS(=O)(=O)Cc1ccc(Cl)cc1)C(=O)Nc1cccc(C(F)(F)F)c1` (stereo not drawn), for which the AC50 is 15.8 µM (inconclusive) at Cytochrome P450 2D6 and 8.91 µM (inconclusive) at Cytochrome P450 2C9.
With `CC(=O)Nc1ccc(SCC(=O)Nc2ccccc2Oc2ccccc2)cc1`, the IC50 in assay [5] and in [6] was > 66 µM (inactive) throughout.
Regarding `COc1ccc(-c2csc(NC(=O)CSc3n[nH]c(N)n3)n2)cc1`, the IC50 in assay [5] and in assay [6] was > 66 µM (inactive) each time.
For `C[C@@H]1CN([C@@H](C)CO)C(=O)c2cccc(NS(=O)(=O)c3ccc(Cl)cc3)c2O[C@@H]1CN(C)C(=O)Nc1ccc(C(F)(F)F)cc1`, in assay [4], the AC50 is 3.58 µM (active).
Same read-out and setting: then `C[C@@H]1CN([C@@H](C)CO)C(=O)c2cccc(NC(=O)CCCCCC(=O)Nc3ccccc3N)c2O[C@@H]1CN(C)Cc1ccc(Oc2ccccc2)cc1`, with 2.17 µM (active).
As to `Cc1ccc(NC(=O)CN2C(=O)S/C(=C/c3ccncc3)C2=O)cc1`, the IC50 in assay [5] and in assay [6] was > 66 µM (inactive) each time.
With `COc1ccc(-n2ccnc(SCC(=O)NC3CCCC3)c2=O)cc1OC`, the IC50 in assay [5] and in assay [6] was > 66 µM (inactive) each time.
`O=C(NC(=S)NC1CCSC1=O)c1cccc([N+](=O)[O-])c1` (stereo not drawn): the IC50 in assay [5] and in assay [6] was > 66 µM (inactive) in each case.
Regarding `C[C@@H]1CN([C@@H](C)CO)C(=O)c2cccc(NC(=O)Nc3ccccc3)c2O[C@@H]1CN(C)S(=O)(=O)c1cccs1`, the AC50 in [4] is 14.8 µM (active).
Same read-out and setting: under `C[C@H]1CN([C@@H](C)CO)C(=O)c2cc(NC(=O)Nc3cccc4ccccc34)ccc2O[C@H]1CN(C)Cc1ccc(-c2ccccc2)cc1` stands 5.22 µM (active).
The same measure, in the same setting: under `C[C@@H]1CN([C@H](C)CO)C(=O)Cc2cc(NS(=O)(=O)c3ccccc3)ccc2O[C@@H]1CN(C)Cc1ccc(-c2ccccc2)cc1` stands 3.26 µM (active).
Regarding `CCN(CC)CCC(=O)Nc1ccc2c(c1)N(C(=O)CN(CC)CC)c1ccccc1CC2`, at Cytochrome P450 2D6, the AC50 was 15.8 µM (inconclusive).
